Here are results for one substance from patent publication US20250377365A1, “METHODS INVOLVING DETECTING TNF STIMULATED GENE 6 (TSG-6) FOR IMPROVING ANTI-TUMOR RESPONSES TO IMMUNE THERAPY IN CANCER PATIENTS” (BOARD OF REGENTS, THE UNIVERSITY OF TEXAS SYSTEM, priority 2022, published 2025).

The assay deals with bone marrow-derived macrophages (BMDM). The experiment in a line: In vitro macrophage polarization assay (RT-qPCR gene expression). The class given is cell-based, mice. The settings on record: 0.5 mg/mL recombinant TSG6, 2 days, qPCR vs GAPDH, FIG. 3C. The source says: To determine if fibroblast secreted TSG-6 regulates the presence the distinct myeloid subsets between melanoma and pancreatic TME, the inventors performed receptor-ligand studies between the myeloid subsets and fibroblasts. First, the inventors analyzed the relative expression of TSG-6 and its binding partner CD44 in the fibroblasts and macrophage/neutrophil subsets. While TSG-6 was expressed slightly higher in the mT4 tumors as compared to B16F10 tumors, its ligand CD44 was primarily expressed in the macrophage/neutrophil subsets only in the mT4 tumors (FIG. 3A). To determine if this observation correlates with higher interactions between TSG-6 and suppressive myeloid subsets in the mT4 tumors, the inventors performed receptor-ligand interaction studies using CellChat analysis (PMID: 33597522). The analysis indicated strong communication probabilities of fibroblast expressed TSG-6 and myeloid CD44 interaction only in the mT4 tumors and not B16F10 tumors (FIG. 3B). To further evaluate whether TSG-6 regulates the immunosuppressive macrophage phenotype, the inventors performed an in vitro macrophage polarization assay. The inventors stimulated bone marrow-derived macrophages (BMDM) with either LPS or recombinant TSG-6 (rTSG-6) and observed that rTSG-6 increased the expression of Arg1, Mafb, Mrc1, and Vista in the macrophages and suppressed Ifng expression (FIG. 3C). Thus, the above data indicates TSG-6 interacts with suppressive intratumoral myeloid subsets and might have a role to play in resistance to ICT.
TSG-6 stimulated bone marrow derived macrophages (BMDM) and RT-qPCR Gene Expression: BMDM were isolated from the femurs of wild type C57/BL6 mice in ice cold complete RPMI 1640 media. Both epiphyses were removed before the bones were placed in sterile microfuge tubes and centrifuged at 500×g for 5 minutes at 4° C. to extrude the bone marrow. The collected bone marrow was homogenized by pipetting followed by RBC lysis. The single cell suspension of bone marrow cells obtained, was counted in an automated Vicell cell counter before 2.0e6 cells/well were cultured in Iscove's Modified Dulbecco's Medium (IMDM) supplemented with 10% FBS and 10 ng/ml Macrophage colony-stimulating factor (M-CSF) (Biolegend, Cat #576404)) in a 12 well plate. On Day 3, cells were resuspended in fresh growth media and on Day 7, cells were subjected to fresh complete IMDM containing 100 ng/ml LPS (InvivoGen, Cat #tlrl-eblps) and 0.5 mg/mL recombinant TSG6 (R&D Systems, Cat #2326-TS-050) and left in culture for 2 days. Supernatants were removed and adhered macrophages were subjected to Accutase cell detachment solution following manufacturers protocol (Innovative Cell Technologies, 07920). Macrophages were resuspended and centrifuged at 350×g for 8 minutes. Cell pellets were lysed with 350 uL buffer RLT lysis buffer (Qiagen, 74104) supplemented with B-ME and subjected to RNA extraction using RNA mini extraction kit (Qiagen, 74104). cDNA was synthesized using the NEB LunaScript RT SuperMix Kit (E3010L) and 30 ng of total cDNA was used for each 20 uL qPCR reaction. Taqman gene expression Real-Time PCR assays were run using manufacturers protocol and gene targets were compared to GAPDH housekeeping expression (GAPDH, Mm05724508_g1; IFNg, Mm01168134_m1; Mrc1, Mm01329359_m1; Arg1, Mm00475988_m1; Mafb, Mm00627481_s1, VISTA, Mm00472312_m1).
In general terms: Quantitative PCR measures a nucleic acid by following its amplification.

Regarding “rTSG-6: recombinant TSG6 protein, R&D Systems, Cat #2326-TS-050”, the Ifng expression entry is reported as “suppressed”, the “expression of Arg1” value is recorded as “increased”, the “expression of Mafb” value is “increased” and the “expression of Mrc1” value is reported as “increased”. The “expression of Vista” value is given as “increased”.
